Tests used:
[1] = system: Staphylococcus aureus IFO 13276; assay: Viable Count of Staphylococcus aureus IFO 13276 in Erythritol Solution; assay type: cell-based
Method: (§1) Erythritol solutions of respective concentrations in the range of from 30 to 60% were prepared. To these were inoculated Staphylococcus aureus IFO 13276, Bacillus subtilis IFO 3134, and Escherichia coli IFO 3972 as bacteria, Candida albicans IFO 1549 and Saccharomyces cerevisiae ATCC 9763 as yeasts, Aspergillus niger IFO 6342, Aspergillus flavus IFO 6343, and Penicillium funiculosum IFO 6345 as fungi, respectively, in a population (concentration) of 10,000 cells/mL or more. After the inoculation, the solutions were stored at 30, 37, 45, 50, or 60° C., respectively, for 56 days and the number of viable cell was determined daily. The determination of the number of viable cell was performed by a method of coating 0.1 mL of appropriately diluted sample cultivation on an agar plate and cultivating and counting the number of viable cell (the number of colony) that grew after the cultivation.

[2] = system: Saccharomyces cerevisiae ATCC 9763; assay: Viable Count of Saccharomyces cerevisiae ATCC 9763 in Erythritol Solution; assay type: cell-based
Method: as §1

Structure (SMILES): OC[C@@H](O)[C@@H](O)CO [Erythritol Solution, erythritol]
- The Number of Viable Cell ([1]; 30° C., 30% w/w, Day 0): 10000 or more cells/mL
- The Number of Viable Cell ([1]; 30° C., 30% w/w, Day 3): 20400 cells/mL
- The Number of Viable Cell ([1]; 30° C., 30% w/w, Day 7): 11100 cells/mL
- The Number of Viable Cell ([1]; 30° C., 30% w/w, Day 14): 360 cells/mL
- The Number of Viable Cell ([1]; 30° C., 30% w/w, Day 28): 0 cells/mL
- The Number of Viable Cell ([1]; 30° C., 30% w/w, Day 56): 0 cells/mL
- The Number of Viable Cell ([1]; 30° C., 40% w/w, Day 0): 10000 or more cells/mL
- The Number of Viable Cell ([1]; 30° C., 40% w/w, Day 3): 8380 cells/mL
- The Number of Viable Cell ([1]; 30° C., 40% w/w, Day 7): 6200 cells/mL
- The Number of Viable Cell ([1]; 30° C., 40% w/w, Day 14): 4200 cells/mL
- The Number of Viable Cell ([1]; 30° C., 40% w/w, Day 28): 0 cells/mL
- The Number of Viable Cell ([1]; 30° C., 40% w/w, Day 56): 0 cells/mL
- The Number of Viable Cell ([1]; 45° C., 30% w/w, Day 0): 10000 or more cells/mL
- The Number of Viable Cell ([1]; 45° C., 30% w/w, Day 3): 0 cells/mL
- The Number of Viable Cell ([1]; 45° C., 30% w/w, Day 7): 0 cells/mL
- The Number of Viable Cell ([1]; 45° C., 30% w/w, Day 14): 0 cells/mL
- The Number of Viable Cell ([1]; 45° C., 30% w/w, Day 28): 0 cells/mL
- The Number of Viable Cell ([1]; 45° C., 30% w/w, Day 56): 0 cells/mL
- The Number of Viable Cell ([1]; 45° C., 40% w/w, Day 0): 10000 or more cells/mL
- The Number of Viable Cell ([1]; 45° C., 40% w/w, Day 3): 0 cells/mL
- The Number of Viable Cell ([1]; 45° C., 40% w/w, Day 7): 0 cells/mL
- The Number of Viable Cell ([1]; 45° C., 40% w/w, Day 14): 0 cells/mL
- The Number of Viable Cell ([1]; 45° C., 40% w/w, Day 28): 0 cells/mL
- The Number of Viable Cell ([1]; 45° C., 40% w/w, Day 56): 0 cells/mL
- The Number of Viable Cell ([1]; 45° C., 50% w/w, Day 0): 10000 or more cells/mL
- The Number of Viable Cell ([1]; 45° C., 50% w/w, Day 3): 0 cells/mL
- The Number of Viable Cell ([1]; 45° C., 50% w/w, Day 7): 0 cells/mL
- The Number of Viable Cell ([1]; 45° C., 50% w/w, Day 14): 0 cells/mL
- The Number of Viable Cell ([1]; 45° C., 50% w/w, Day 28): 0 cells/mL
- The Number of Viable Cell ([1]; 45° C., 50% w/w, Day 56): 0 cells/mL
- The Number of Viable Cell ([1]; 50° C., 30% w/w, Day 0): 10000 or more cells/mL
- The Number of Viable Cell ([1]; 50° C., 30% w/w, Day 3): 0 cells/mL
- The Number of Viable Cell ([1]; 50° C., 30% w/w, Day 7): 0 cells/mL
- The Number of Viable Cell ([1]; 50° C., 30% w/w, Day 14): 0 cells/mL
- The Number of Viable Cell ([1]; 50° C., 30% w/w, Day 28): 0 cells/mL
- The Number of Viable Cell ([1]; 50° C., 30% w/w, Day 56): 0 cells/mL
- The Number of Viable Cell ([1]; 50° C., 40% w/w, Day 0): 10000 or more cells/mL
- The Number of Viable Cell ([1]; 50° C., 40% w/w, Day 3): 0 cells/mL
- The Number of Viable Cell ([1]; 50° C., 40% w/w, Day 7): 0 cells/mL
- The Number of Viable Cell ([1]; 50° C., 40% w/w, Day 14): 0 cells/mL
- The Number of Viable Cell ([1]; 50° C., 40% w/w, Day 28): 0 cells/mL
- The Number of Viable Cell ([1]; 50° C., 40% w/w, Day 56): 0 cells/mL
- The Number of Viable Cell ([1]; 50° C., 50% w/w, Day 0): 10000 or more cells/mL
- The Number of Viable Cell ([1]; 50° C., 50% w/w, Day 3): 0 cells/mL
- The Number of Viable Cell ([1]; 50° C., 50% w/w, Day 7): 0 cells/mL
- The Number of Viable Cell ([1]; 50° C., 50% w/w, Day 14): 0 cells/mL
- The Number of Viable Cell ([1]; 50° C., 50% w/w, Day 28): 0 cells/mL
- The Number of Viable Cell ([1]; 50° C., 50% w/w, Day 56): 0 cells/mL
- growth of the microbes ([1]; temperature of 50° C. or more): prevented from growing
- time after which microbes died ([1]; temperature of 50° C. or more): 3 days
- The Number of Viable Cell ([2]; 37° C., 30% w/w, Day 0): ≥ 10000 cells/mL
- The Number of Viable Cell ([2]; 37° C., 30% w/w, Day 3): ≥ 10000 cells/mL
- The Number of Viable Cell ([2]; 37° C., 30% w/w, Day 7): ≥ 10000 cells/mL
- The Number of Viable Cell ([2]; 37° C., 30% w/w, Day 14): ≥ 10000 cells/mL
- The Number of Viable Cell ([2]; 37° C., 30% w/w, Day 28): ≥ 10000 cells/mL
- The Number of Viable Cell ([2]; 37° C., 30% w/w, Day 56): 0 cells/mL
- The Number of Viable Cell ([2]; 37° C., 40% w/w, Day 0): ≥ 10000 cells/mL
- The Number of Viable Cell ([2]; 37° C., 40% w/w, Day 3): ≥ 10000 cells/mL
- The Number of Viable Cell ([2]; 37° C., 40% w/w, Day 7): ≥ 10000 cells/mL
- The Number of Viable Cell ([2]; 37° C., 40% w/w, Day 14): ≥ 10000 cells/mL
- The Number of Viable Cell ([2]; 37° C., 40% w/w, Day 28): 1130 cells/mL
- The Number of Viable Cell ([2]; 37° C., 40% w/w, Day 56): 0 cells/mL
- The Number of Viable Cell ([2]; 45° C., 30% w/w, Day 0): ≥ 10000 cells/mL
- The Number of Viable Cell ([2]; 45° C., 30% w/w, Day 3): 1480 cells/mL
- The Number of Viable Cell ([2]; 45° C., 30% w/w, Day 7): 0 cells/mL
- The Number of Viable Cell ([2]; 45° C., 30% w/w, Day 14): 0 cells/mL
- The Number of Viable Cell ([2]; 45° C., 30% w/w, Day 28): 0 cells/mL
- The Number of Viable Cell ([2]; 45° C., 30% w/w, Day 56): 0 cells/mL
- The Number of Viable Cell ([2]; 45° C., 40% w/w, Day 0): ≥ 10000 cells/mL
- The Number of Viable Cell ([2]; 45° C., 40% w/w, Day 3): 1440 cells/mL
- The Number of Viable Cell ([2]; 45° C., 40% w/w, Day 7): 0 cells/mL
- The Number of Viable Cell ([2]; 45° C., 40% w/w, Day 14): 0 cells/mL
- The Number of Viable Cell ([2]; 45° C., 40% w/w, Day 28): 0 cells/mL
- The Number of Viable Cell ([2]; 45° C., 40% w/w, Day 56): 0 cells/mL
- The Number of Viable Cell ([2]; 45° C., 50% w/w, Day 0): ≥ 10000 cells/mL

Reference: patent US6489469B1, “Method for storing or transporting erythritol solution” (Nikken Chemicals Co., Ltd., priority 1999, dated 2002)
